Data set [1] has as its target T1, macrophage inhibitory factor (MIF) (Homo sapiens, UniProt P14174).
T1 sequence (P14174 2-115 limits assumed): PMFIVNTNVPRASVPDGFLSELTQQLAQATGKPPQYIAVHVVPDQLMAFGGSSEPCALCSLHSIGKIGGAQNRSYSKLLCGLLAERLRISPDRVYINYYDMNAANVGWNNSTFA
The settings on record: Cho et al., PNAS-USA 2010; cited from earlier work.

The test system of a further data set is PDE 4. The settings on record: Gibson et al., Eur J Pharmacol 2006; cited from earlier work.
The target of data set [2] is toll-like receptor-4 (TLR4) (Homo sapiens, UniProt O00206). The settings on record: Yang et al., Cell Death and Disease 2016; cited from earlier work.
Another data set deals with PDE 11A1 (Homo sapiens, UniProt Q9HCR9). The settings on record: Gibson et al., Eur J Pharmacol 2006; cited from earlier work.
Another data set relates to leukotriene D4. To be noted: reported; cited from earlier work.
For another data set, the target named is PDE 3A (Homo sapiens, UniProt Q14432). To be noted: Gibson et al., Eur J Pharmacol 2006; cited from earlier work.
The target of another data set is PDE 10A1 (Homo sapiens, UniProt Q9Y233). To be noted: Gibson et al., Eur J Pharmacol 2006; cited from earlier work.
Another data set has as its system TNFα. Description: Spike protein-mediated TNFα release from human monocyte-derived microglia (iMDM). Type of data set: cell-based. The settings on record: for Dose dependence of TNFα reduction: ibudilast 1, 10 or 100 μM.
The conditions of data set [3]: Sanftner et al., Xenobiotica 2009; cited from earlier work.
For the next data set, the system named is IL-6. In words: Spike protein-mediated IL-6 release from human monocyte-derived microglia (iMDM). Type of data set: cell-based.
The test system of another data set is MIF. In words: Plasma level of MIF. To be noted: found by the inventors.
The subject of another data set is PAF. To be noted: reported; cited from earlier work.

Sequence of PDE 11A1 (Q9HCR9 445-933): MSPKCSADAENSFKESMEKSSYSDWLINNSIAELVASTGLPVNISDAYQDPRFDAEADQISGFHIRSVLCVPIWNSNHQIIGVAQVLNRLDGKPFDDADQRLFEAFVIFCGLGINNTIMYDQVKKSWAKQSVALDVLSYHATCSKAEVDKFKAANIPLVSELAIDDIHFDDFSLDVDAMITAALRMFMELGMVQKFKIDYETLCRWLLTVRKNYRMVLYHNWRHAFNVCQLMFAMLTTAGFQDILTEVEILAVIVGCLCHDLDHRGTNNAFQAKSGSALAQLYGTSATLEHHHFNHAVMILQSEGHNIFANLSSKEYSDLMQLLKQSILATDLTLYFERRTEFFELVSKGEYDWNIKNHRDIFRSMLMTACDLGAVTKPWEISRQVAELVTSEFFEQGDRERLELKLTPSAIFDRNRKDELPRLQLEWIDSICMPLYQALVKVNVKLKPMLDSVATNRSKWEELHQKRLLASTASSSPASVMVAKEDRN
Sequence of PDE 3A (Q14432 whole entry): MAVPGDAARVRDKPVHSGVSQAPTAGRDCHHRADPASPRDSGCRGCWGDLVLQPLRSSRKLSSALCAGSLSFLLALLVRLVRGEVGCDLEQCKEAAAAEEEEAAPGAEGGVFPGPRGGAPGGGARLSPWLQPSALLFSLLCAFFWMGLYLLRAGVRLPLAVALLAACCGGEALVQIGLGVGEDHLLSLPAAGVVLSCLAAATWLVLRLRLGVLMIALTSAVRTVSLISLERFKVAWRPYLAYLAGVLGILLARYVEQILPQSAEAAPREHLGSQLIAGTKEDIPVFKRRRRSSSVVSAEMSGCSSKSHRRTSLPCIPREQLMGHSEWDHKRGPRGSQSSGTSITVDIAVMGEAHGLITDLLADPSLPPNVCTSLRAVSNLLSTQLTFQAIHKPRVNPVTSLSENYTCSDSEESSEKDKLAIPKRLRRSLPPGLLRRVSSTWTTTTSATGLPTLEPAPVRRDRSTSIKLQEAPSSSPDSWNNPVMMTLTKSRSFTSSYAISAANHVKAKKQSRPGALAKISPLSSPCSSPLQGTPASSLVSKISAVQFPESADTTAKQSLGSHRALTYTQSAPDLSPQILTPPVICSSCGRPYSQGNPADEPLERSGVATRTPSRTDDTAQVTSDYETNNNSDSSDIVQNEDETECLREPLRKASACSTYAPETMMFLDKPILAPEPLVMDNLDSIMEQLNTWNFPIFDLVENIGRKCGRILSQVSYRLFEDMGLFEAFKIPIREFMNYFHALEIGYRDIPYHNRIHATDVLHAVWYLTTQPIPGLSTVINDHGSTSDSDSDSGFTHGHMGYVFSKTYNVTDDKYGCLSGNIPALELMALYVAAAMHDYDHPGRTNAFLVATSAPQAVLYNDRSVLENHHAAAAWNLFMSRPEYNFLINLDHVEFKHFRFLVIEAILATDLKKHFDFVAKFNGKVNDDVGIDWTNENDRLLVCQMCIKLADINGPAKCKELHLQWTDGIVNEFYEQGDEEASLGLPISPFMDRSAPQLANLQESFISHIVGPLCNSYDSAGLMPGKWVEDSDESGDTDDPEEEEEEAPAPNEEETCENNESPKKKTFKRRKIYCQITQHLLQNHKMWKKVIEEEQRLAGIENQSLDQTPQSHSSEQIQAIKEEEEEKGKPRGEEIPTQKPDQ
Sequence of toll-like receptor-4 (TLR4) (O00206 24-839, species assumed): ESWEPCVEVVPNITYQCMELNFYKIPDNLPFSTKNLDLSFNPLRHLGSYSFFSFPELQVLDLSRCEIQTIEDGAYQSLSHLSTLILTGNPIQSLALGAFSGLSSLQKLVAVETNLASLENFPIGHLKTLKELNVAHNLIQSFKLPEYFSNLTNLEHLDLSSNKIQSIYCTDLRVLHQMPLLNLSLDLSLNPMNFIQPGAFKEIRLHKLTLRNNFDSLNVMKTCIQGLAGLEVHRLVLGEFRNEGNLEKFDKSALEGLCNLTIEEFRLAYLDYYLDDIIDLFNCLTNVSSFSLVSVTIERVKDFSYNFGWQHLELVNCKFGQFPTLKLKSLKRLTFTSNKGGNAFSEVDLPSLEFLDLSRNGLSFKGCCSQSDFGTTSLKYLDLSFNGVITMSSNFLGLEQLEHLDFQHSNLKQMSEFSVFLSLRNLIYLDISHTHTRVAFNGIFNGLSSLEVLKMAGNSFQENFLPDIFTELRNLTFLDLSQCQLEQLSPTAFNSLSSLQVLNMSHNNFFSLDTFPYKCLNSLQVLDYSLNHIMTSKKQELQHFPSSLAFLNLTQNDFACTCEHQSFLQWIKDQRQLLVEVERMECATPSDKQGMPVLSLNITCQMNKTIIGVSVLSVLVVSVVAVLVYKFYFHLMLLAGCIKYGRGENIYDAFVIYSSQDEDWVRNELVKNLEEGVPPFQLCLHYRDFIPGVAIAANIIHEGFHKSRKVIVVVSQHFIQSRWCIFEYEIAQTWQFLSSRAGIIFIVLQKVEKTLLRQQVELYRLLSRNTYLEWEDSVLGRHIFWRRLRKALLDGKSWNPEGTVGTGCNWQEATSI
Sequence of PDE 10A1 (Q9Y233 1-779 isoform Q9Y233-1): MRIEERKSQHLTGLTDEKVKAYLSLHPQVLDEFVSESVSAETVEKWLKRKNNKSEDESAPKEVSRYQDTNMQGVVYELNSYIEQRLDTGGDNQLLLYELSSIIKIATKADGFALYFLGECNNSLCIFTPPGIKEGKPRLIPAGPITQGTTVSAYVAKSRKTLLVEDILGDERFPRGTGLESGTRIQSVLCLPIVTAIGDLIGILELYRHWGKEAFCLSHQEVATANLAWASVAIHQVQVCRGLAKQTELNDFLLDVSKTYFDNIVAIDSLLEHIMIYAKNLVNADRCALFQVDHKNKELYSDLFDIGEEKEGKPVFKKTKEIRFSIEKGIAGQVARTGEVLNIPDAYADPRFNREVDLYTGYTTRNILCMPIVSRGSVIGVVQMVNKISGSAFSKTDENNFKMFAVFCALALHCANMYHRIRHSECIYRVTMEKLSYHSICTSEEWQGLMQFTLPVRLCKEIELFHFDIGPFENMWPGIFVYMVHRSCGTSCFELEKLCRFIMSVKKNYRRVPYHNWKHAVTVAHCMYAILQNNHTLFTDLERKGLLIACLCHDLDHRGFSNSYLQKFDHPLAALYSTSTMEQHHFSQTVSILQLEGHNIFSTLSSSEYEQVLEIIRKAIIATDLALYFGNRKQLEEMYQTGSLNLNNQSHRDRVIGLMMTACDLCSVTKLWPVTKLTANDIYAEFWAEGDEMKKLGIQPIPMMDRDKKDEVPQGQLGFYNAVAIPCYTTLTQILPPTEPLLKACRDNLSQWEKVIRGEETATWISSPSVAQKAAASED

As to `CC(C)C(=O)c1c(C(C)C)nn2ccccc12` [Ibudilast, 2-methyl-1-(2-(1-methylethyl)pyrazolo (1,5-a)pyridin-3-yl) 1-propanone], in [1], the “HPP tautomerase activity of MIF” value is “allosteric inhibitor”. Further, the “PDE 4 inhibition” value in the data set on PDE 4 is “selective inhibitor”. The TLR4 antagonistic activity entry in [2] was “antagonistic activity”. In addition, the “PDE 11A1 inhibition” value on PDE 11A1 was “selective inhibitor”. The “leukotriene D4 antagonistic activity” value in the data set on leukotriene D4 is given as “antagonistic activities”. Moreover, the “PDE 3A inhibition” value at PDE 3A is on record as “selective inhibitor”. Further, the “PDE 10A1 inhibition” value on PDE 10A1 is listed as “selective inhibitor”. The “Dose dependence of TNFα reduction” value is “Dose-dependent curves are observed” in the data set on TNFα ("Omicron" spike protein (1.0 μg/ml) with cross-linker, all 3 donors) and “Dose-dependent curves are observed” in the data set on TNFα ("Omicron" spike protein (5.0 μg/ml) with cross-linker, donor 3). Moreover, the “TNFα levels elevated by "Omicron" spike protein” value in the data set on TNFα ("Omicron" spike protein, under certain test conditions, FIGS. 6-8) is “reduction by ibudilast was evident under certain test conditions”. The “(LPS+spike protein)-evoked levels of TNFα” value in the data set with TNFα (all donors, FIGS. 1-3) is reported as “reduced”. Besides, the TNFα levels entry in the data set on TNFα (iMDM, […], ibudilast 1.0, 10, 100 μM) is recorded as “reduce”. Moreover, the CNS penetration result in [3] is given as “good CNS penetration”. Further, the “(LPS+spike protein)-evoked levels of IL-6” value in the data set on IL-6 (donors 2 and 3, FIGS. 4-5) is on record as “reduced”. In the data set with IL-6 (iMDM, "low" concentration (10 ng/mL) of LPS added with the spike proteins (all variants), ibudilast 1.0, 10, 100 μM), the IL-6 levels entry was “reduce”. Also, in the data set with MIF, the “plasma level of MIF” value is “lowers plasma level of MIF”. The PAF antagonistic activity entry in the data set on PAF is “antagonistic activities”.

These data come from patent US12171752B2, “Methods of treating post-COVID condition(s)” (priority 2022, dated 2024).
